Structures are written as SMILES. The source made the active and inactive calls. How the calls were made is not given here.

Sequence of Nuclear receptor subfamily 5 group A member 2 (Homo sapiens) (O00482 whole entry, looked up): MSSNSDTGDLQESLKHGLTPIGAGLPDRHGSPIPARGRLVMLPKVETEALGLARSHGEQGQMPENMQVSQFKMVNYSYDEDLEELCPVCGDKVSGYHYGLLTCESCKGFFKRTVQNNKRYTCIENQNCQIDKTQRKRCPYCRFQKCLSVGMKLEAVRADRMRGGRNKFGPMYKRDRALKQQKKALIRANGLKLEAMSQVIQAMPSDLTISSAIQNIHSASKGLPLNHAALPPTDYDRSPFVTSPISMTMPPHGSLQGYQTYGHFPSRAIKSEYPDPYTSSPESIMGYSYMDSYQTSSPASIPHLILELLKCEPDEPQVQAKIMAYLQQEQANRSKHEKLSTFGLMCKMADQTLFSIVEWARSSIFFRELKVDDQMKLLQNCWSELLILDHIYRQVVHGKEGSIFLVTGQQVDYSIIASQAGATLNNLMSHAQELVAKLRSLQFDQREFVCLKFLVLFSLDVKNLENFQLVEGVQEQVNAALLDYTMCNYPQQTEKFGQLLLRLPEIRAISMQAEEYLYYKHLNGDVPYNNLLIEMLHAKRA

The experiment addresses Nuclear receptor subfamily 5 group A member 2 (Homo sapiens) (UniProt O00482). As to the kind of experiment: LRH-1 (NR5A2) inverse agonist potency, dose response, cell-based, luminescence, late stage (AID 651976). The settings on record: cell-based LRH-1 luciferase reporter. (In general: In a reporter assay the amount or activity of a reporter protein is the signal.)
By IC50 is commonly meant the midpoint of a concentration-inhibition curve. Consider `COc1ccc(NC(=O)COC(=O)c2c(-c3ccccc3)noc2C)cc1`, for which the IC50 is 0.677 µM. In the case of `CCOc1ccc(OCCC(=O)OCC(=O)Nc2ccc3c(c2)OCCO3)cc1` it was > 35.9 µM (inactive); in that of `Cc1cc(Br)ccc1NC(=O)CN1C(=O)CCC1=O`, 1.06 µM; in that of `CCc1cc(=O)[nH]c(SCC(=O)Nc2ccc3c(c2)OCCO3)n1`, > 35.9 µM (inactive).

As for `CC(=O)Nc1ccc(N=c2cc([N+](=O)[O-])cc(Cl)n2O)cc1`, the IC50 was 0.929 µM. In the case of `COc1ccc(NC(=O)CSc2sc3c(O)cc(=O)[nH]c3c2C#N)c(OC)c1` it was “inactive”; in that of `CC1SC(C)C(=O)N(CC(=O)Nc2ccc3c(c2)OCO3)C1=O` (stereo not drawn), > 35.9 µM (inactive); in that of `O=C(Nc1ccccc1)c1oc2ccccc2c1NC(=O)C1CC1`, 9.07 µM. In the case of `CC(=O)c1ccc(NC(=O)C(C)O/N=C(\N)c2ccccc2)cc1` (stereo not drawn) it was 7.64 µM; in that of `O=C(COC(=O)c1ccc(Br)cc1)Nc1ccccc1Br`, 4.11 µM; in that of `COc1ccc(NS(=O)(=O)c2ccc(OCC(=O)N3CCN(C)CC3)cc2)cc1Cl`, 5.3 µM.

With `O=C(COC(=O)c1ccc[n+]([O-])c1)Nc1ccc([N+](=O)[O-])cc1Cl`, the IC50 was 7.19 µM.

Regarding `COc1ccc(C2(C)NC(=O)N(CC(=O)NCCC3=CCCCC3)C2=O)cc1OC` (stereo not drawn), the IC50 is > 35.9 µM (inactive). In the case of `CCc1cc(=O)oc2c(C)c(OCC(=O)NCCN3CCOCC3)ccc12` it was > 35.9 µM (inactive). In the case of `COC(=O)c1ccc(NC(=O)COc2cccc(-n3cnnn3)c2)cc1` it was 2.3 µM; in that of `Cc1ccc2cccc(OCC(=O)NCCC3=CCCCC3)c2n1`, 1.83 µM; in that of `COC(=O)c1ccc(NC(=O)CSc2nncn2-c2cccnc2)cc1`, > 35.9 µM (inactive). In the case of `Cc1ccc(-c2csc(NC(=O)c3ccc([N+](=O)[O-])o3)n2)cc1` it was > 35.9 µM (inactive); in that of `CCOc1ccc(NC(=O)CSc2nnc(C(C)C)n2CC)cc1`, > 12 µM (inactive). With `Cc1cc(Br)ccc1NC(=O)CSc1nnc(CN2CCOCC2)n1C`, the IC50 was 7.86 µM.

Turning to `Cc1ccc(NC(=O)CSc2sc3c(O)cc(=O)[nH]c3c2C#N)c(F)c1`, the IC50 is > 35.9 µM (inactive). In the case of `COCCn1c(C)cc(/C=C(\C#N)C(=O)OCC(=O)Nc2ccc(S(N)(=O)=O)cc2)c1C` it was > 35.9 µM (inactive); in that of `O=C(OCC(=O)N1CCN(C(=O)COC(=O)c2ccc(O)cc2O)CC1)c1ccc(O)cc1O`, 1.37 µM. In the case of `Cc1ccc(NC(=O)COC(=O)C(NS(=O)(=O)c2ccc(Cl)cc2)C(C)O)cc1C` (stereo not drawn) it was 1.67 µM; in that of `NC(=O)C1CCN(C(=O)COc2ccc3c4c(c(=O)oc3c2)CCCC4)CC1`, > 12 µM (inactive); in that of `Cc1ccc(NC(=O)CSc2nc3[nH]c(=O)cc(O)c3s2)c(Br)c1`, “inactive”.

Regarding `CC(C)CC1(C)NC(=O)N(CC(=O)Nc2ccc3c(c2)OCCO3)C1=O` (stereo not drawn), the IC50 was > 35.9 µM (inactive). In the case of `O=C(COC(=O)c1ccc(=O)n(Cc2ccccc2)n1)Nc1ccc2c(c1)OCCO2` it was > 35.9 µM (inactive). In the case of `COCC(=O)NC1CCN(CC(=O)Nc2ccc(OC)cc2[N+](=O)[O-])CC1` it was > 35.9 µM (inactive); in that of `Cc1cccc(NC(=O)COC(=O)Cc2cccs2)c1C`, > 35.9 µM (inactive); in that of `O=C(NCC1CCCO1)c1ccc(NC(=O)c2cccc([N+](=O)[O-])c2)cc1` (stereo not drawn), 0.386 µM. With `O=C(COC(=O)CCN1C(=O)C2CC=CCC2C1=O)NCCc1ccc(F)cc1` (stereo not drawn), the IC50 was > 35.9 µM (inactive).

Consider `O=C(CSc1nnc(CNC(=O)c2ccccc2F)o1)Nc1ccc2c(c1)OCCO2`, for which the IC50 was 0.732 µM. In the case of `O=C(CSc1nc(=O)n2cc(Cl)ccc2n1)Nc1ccc2c(c1)OCCO2` it was > 35.9 µM (inactive); in that of `CCOc1ccc(OCCN2C(=O)NC(Cc3c[nH]c4ccccc34)C2=O)cc1` (stereo not drawn), > 35.9 µM (inactive); in that of `O=c1[nH]c(Nc2ccc3c(c2)OCCO3)nnc1Cc1ccccc1`, 2.27 µM. With `Cc1ccc(NC(=O)COC(=O)c2cc(=O)c3ccccc3o2)c(Br)c1`, the IC50 is > 35.9 µM (inactive). In the case of `CCc1c(C)nc(SCC(=O)Nc2ccc3c(c2)OCCO3)[nH]c1=O` it was 7.54 µM; in that of `CCCN(CC(=O)Nc1ccc(C(C)=O)cc1)CC(=O)Nc1ccccc1C`, “inactive”; in that of `CCn1c(SCC(=O)Nc2ccc(Cl)cc2)nnc1C1CC1`, > 35.9 µM (inactive). On to `COc1ccc(NC(=O)CN2C(=O)NC3(CCCC3)C2=O)cc1`, for which the IC50 is > 35.9 µM (inactive). In the case of `O=C(COc1ccc2c3c(c(=O)oc2c1)CCC3)NCc1ccncc1` it was > 35.9 µM (inactive); in that of `COc1ccc(CCNC(=O)COC(=O)C23CC4CC(CC(C4)C2)C3)cc1`, 1.47 µM; in that of `O=C(NCc1ccco1)c1nn(-c2ccccc2)c(=O)c2ccccc12`, 4.41 µM. In the case of `CCOc1ccc(NC(=O)COC(=O)CC2CCCCC2)cc1` it was > 35.9 µM (inactive); in that of `CC(=O)c1ccc(OC(C)C(=O)OCC(=O)NCCc2ccccc2)cc1` (stereo not drawn), > 35.9 µM (inactive). In the case of `O=C(COc1ccc2c3c(c(=O)oc2c1)CCCC3)NCc1ccccn1`, the IC50 is > 35.9 µM (inactive).

`COc1ccc(CCNC(=O)COC(=O)Cc2ccccc2[N+](=O)[O-])cc1`: the IC50 is > 35.9 µM (inactive). In the case of `CCCc1cc(=O)oc2c(C)c(OCC(=O)NCCN3CCOCC3)ccc12` it was > 35.9 µM (inactive); in that of `CCCc1cc(=O)oc2c(C)c(OCC(=O)NCCCn3ccnc3)ccc12`, > 35.9 µM (inactive).

On to `COc1ccc(CC(NC(C)=O)C(=O)NC2CCN(c3nnnn3-c3ccccc3)CC2)cc1` (stereo not drawn), for which the IC50 is 0.779 µM.

As to `CCOc1ccc(NC(=O)CSc2nc3[nH]ncc3c(=O)[nH]2)cc1`, the IC50 is 1.13 µM. `COc1ccc(NC(=O)COC(=O)c2cc(S(=O)(=O)N3CCCC3)ccc2O)cc1`: the IC50 is > 35.9 µM (inactive). In the case of `N#CCSc1ccccc1NC(=O)CN1C(=O)C2CC=CCC2C1=O` (stereo not drawn) it was “inactive”.

Consider `COc1ccc(CCNC(=O)CSc2ccc(NC(C)=O)cc2)cc1OC`, for which the IC50 is 5.44 µM. In the case of `COc1ccc(CCNC(=O)CSc2nn3c(=O)c(C)nnc3s2)cc1OC` it was 1.37 µM; in that of `COC(=O)c1ccc(NC(=O)CSc2nc3ncccc3[nH]2)cc1`, > 35.9 µM (inactive).

Turning to `CCCc1nnc(SCC(=O)Nc2ccc(C(=O)OCC)cc2)o1`, the IC50 was > 35.9 µM (inactive).

Turning to `Cc1ccc(NC(=O)COC(=O)C(NS(=O)(=O)c2ccc(Cl)cc2)C(C)O)c(Br)c1` (stereo not drawn), the IC50 is > 35.9 µM (inactive). In the case of `O=C(CN1C(=O)CCC1=O)Nc1ccc(Br)cc1` it was 2.25 µM; in that of `CCOc1ccc(NC(=O)CSc2nncc(=O)n2N)cc1`, > 12 µM (inactive).

Regarding `Cc1cccc(NC(=O)COC(=O)CN2C(=O)c3ccccc3C2=O)c1C`, the IC50 is > 35.9 µM (inactive). In the case of `COc1ccccc1Oc1nnnn1-c1ccc(C(N)=O)cc1` it was 9.86 µM; in that of `CCCc1cc(=O)oc2cc(OCC(=O)NCCc3ccc(S(N)(=O)=O)cc3)ccc12`, > 35.9 µM (inactive).

On to `COc1ccc(-n2c(N)c(C(=O)NCc3cccnc3)sc2=S)cc1`, for which the IC50 is > 35.9 µM (inactive). `COC(=O)c1ccc(NC(=O)CN2CCN(c3ccc(Cl)cc3)CC2)cc1`: the IC50 is > 35.9 µM (inactive). On to `Cc1nn(CC(=O)Nc2ccc3c(c2)OCCO3)c(C)c1[N+](=O)[O-]`, for which the IC50 is > 35.9 µM (inactive). For the compound `CCOc1ccc(NC(=O)CSc2nccn(-c3ccc4c(c3)OCCO4)c2=O)cc1`, the IC50 was 0.673 µM. As for `Cc1cc(OCC(=O)Nc2nccs2)c2c(C)cc(=O)oc2c1`, the IC50 was 1.25 µM. On to `Cc1cc(=O)oc2c(C)c(OCC(=O)NC3CC(C)(C)NC(C)(C)C3)ccc12`, for which the IC50 is > 35.9 µM (inactive). For `COC(=O)c1ccc(CNC(=O)COC(=O)c2cc(Cl)nc(Cl)c2)cc1`, the concentration for half-maximal inhibition (IC50) was 3.04 µM. In the case of `COc1ccc(NC(=O)CSc2nc(N)c(-c3ccccc3)c(=O)[nH]2)cc1` it was 1.64 µM; in that of `O=C1CCCN2N=C(SCC(=O)Nc3ccc(Br)cc3)SC2=N1`, > 35.9 µM (inactive); in that of `O=C(CSc1nnc(CNC(=O)c2c(F)cccc2F)o1)Nc1ccc2c(c1)OCCO2`, 7.05 µM. As for `CC(=O)Nc1ncc(Cc2cc(Cl)ccc2Cl)s1`, the IC50 is 8.57 µM.

On to `Cc1sc(NC(=O)C(C)C)c(C(=O)Nc2ccccc2)c1C`, for which the 50% inhibitory concentration (IC50) is 8.16 µM. In the case of `COc1ccc(CCNC(=O)COC(=O)c2cc(Cl)nc(Cl)c2)cc1` it was > 35.9 µM (inactive); in that of `COc1ccc(CCNC(=O)COC(=O)c2cccn2C)cc1`, > 35.9 µM (inactive).

These data come from PubChem BioAssay AID651976 (The Scripps Research Institute Molecular Screening Center, 2013).
